Data taken from PubChem BioAssay (NCI).
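96-well plates; 48 h exposure; 5 concentrations. Endpoints by linear interpolation between flanking doses. Not reached: highest tested concentration assigned. GI50 is the concentration that inhibits growth by half. TGI denotes the concentration required for complete inhibition of growth.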

Tests used:
Assay in all cases: NCI-60 cell line screen, 48 h
786-0 renal = tested on: 786-0 renal
A549 NSCLC = tested on: A549 NSCLC
ACHN renal = tested on: ACHN renal
BT-549 breast = tested on: BT-549 breast
CAKI-1 renal = tested on: CAKI-1 renal
CCRF-CEM leukemia = tested on: CCRF-CEM leukemia
COLO 205 colon = tested on: COLO 205 colon
DU-145 prostate = tested on: DU-145 prostate
EKVX NSCLC = tested on: EKVX NSCLC
HCC-2998 colon = tested on: HCC-2998 colon
HCT-15 colon = tested on: HCT-15 colon
HL-60(TB) leukemia = tested on: HL-60(TB) leukemia
HOP-62 NSCLC = tested on: HOP-62 NSCLC
HOP-92 NSCLC = tested on: HOP-92 NSCLC
HS 578T breast = tested on: HS 578T breast
HT29 colon = tested on: HT29 colon
K-562 leukemia = tested on: K-562 leukemia
KM12 colon = tested on: KM12 colon
LOX IMVI melanoma = tested on: LOX IMVI melanoma
M14 melanoma = tested on: M14 melanoma
MALME-3M melanoma = tested on: MALME-3M melanoma
MDA-MB-231 breast = tested on: MDA-MB-231 breast
MDA-MB-435 = tested on: MDA-MB-435
MOLT-4 leukemia = tested on: MOLT-4 leukemia
NCI-H226 lung = tested on: NCI-H226 lung
NCI-H23 lung = tested on: NCI-H23 lung
NCI-H460 lung = tested on: NCI-H460 lung
NCI-H522 lung = tested on: NCI-H522 lung
NCI/ADR-RES ovarian = tested on: NCI/ADR-RES ovarian
OVCAR-3 ovarian = tested on: OVCAR-3 ovarian
OVCAR-4 ovarian = tested on: OVCAR-4 ovarian
OVCAR-5 ovarian = tested on: OVCAR-5 ovarian
OVCAR-8 ovarian = tested on: OVCAR-8 ovarian
PC-3 prostate = tested on: PC-3 prostate
RPMI-8226 leukemia = tested on: RPMI-8226 leukemia
RXF 393 renal = tested on: RXF 393 renal
SF-268 CNS = tested on: SF-268 CNS
SF-295 CNS = tested on: SF-295 CNS
SF-539 CNS = tested on: SF-539 CNS
SK-MEL-2 melanoma = tested on: SK-MEL-2 melanoma
SK-MEL-28 melanoma = tested on: SK-MEL-28 melanoma
SK-MEL-5 melanoma = tested on: SK-MEL-5 melanoma
SK-OV-3 ovarian = tested on: SK-OV-3 ovarian
SN12C renal = tested on: SN12C renal
SNB-19 CNS = tested on: SNB-19 CNS
SNB-75 CNS = tested on: SNB-75 CNS
SW-620 colon = tested on: SW-620 colon
TK-10 renal = tested on: TK-10 renal
U251 CNS = tested on: U251 CNS
UACC-257 melanoma = tested on: UACC-257 melanoma
UACC-62 melanoma = tested on: UACC-62 melanoma
UO-31 renal = tested on: UO-31 renal

SMILES: S=C(SSC(=S)N1CCCCC1)N1CCCCC1
- GI50 (786-0 renal): 14.5 µM
- TGI (786-0 renal): 28.9 µM
- GI50 (A549 NSCLC): 24.1 µM
- TGI (A549 NSCLC): > 100 µM
- GI50 (ACHN renal): 15.5 µM
- TGI (ACHN renal): 41 µM
- GI50 (BT-549 breast): 16.6 µM
- TGI (BT-549 breast): 44.6 µM
- GI50 (CAKI-1 renal): 18 µM
- TGI (CAKI-1 renal): > 100 µM
- GI50 (CCRF-CEM leukemia): 8.18 µM
- TGI (CCRF-CEM leukemia): 58.3 µM
- GI50 (COLO 205 colon): 11.8 µM
- TGI (COLO 205 colon): 24.1 µM
- GI50 (DU-145 prostate): 15.5 µM
- TGI (DU-145 prostate): > 100 µM
- GI50 (EKVX NSCLC): 28.4 µM
- TGI (EKVX NSCLC): > 100 µM
- GI50 (HCC-2998 colon): 28.9 µM
- TGI (HCC-2998 colon): > 100 µM
- GI50 (HCT-15 colon): 16.5 µM
- TGI (HCT-15 colon): 66.8 µM
- GI50 (HL-60(TB) leukemia): 12.4 µM
- TGI (HL-60(TB) leukemia): 51.3 µM
- GI50 (HOP-62 NSCLC): 28.4 µM
- TGI (HOP-62 NSCLC): > 100 µM
- GI50 (HOP-92 NSCLC): 30.7 µM
- TGI (HOP-92 NSCLC): > 100 µM
- GI50 (HS 578T breast): 21 µM
- TGI (HS 578T breast): > 100 µM
- GI50 (HT29 colon): 14.3 µM
- TGI (HT29 colon): 29 µM
- GI50 (K-562 leukemia): 22.5 µM
- TGI (K-562 leukemia): > 100 µM
- GI50 (KM12 colon): 13.9 µM
- TGI (KM12 colon): 29 µM
- GI50 (LOX IMVI melanoma): 5.64 µM
- TGI (LOX IMVI melanoma): 18.1 µM
- GI50 (M14 melanoma): 8.34 µM
- TGI (M14 melanoma): 22.9 µM
- GI50 (MALME-3M melanoma): 16.4 µM
- TGI (MALME-3M melanoma): 50.4 µM
- GI50 (MDA-MB-231 breast): 15.2 µM
- TGI (MDA-MB-231 breast): 41.2 µM
- GI50 (MDA-MB-435): 22 µM
- TGI (MDA-MB-435): > 100 µM
- GI50 (MOLT-4 leukemia): 17.2 µM
- TGI (MOLT-4 leukemia): 49.5 µM
- GI50 (NCI-H226 lung): 34.6 µM
- TGI (NCI-H226 lung): > 100 µM
- GI50 (NCI-H23 lung): 16.3 µM
- TGI (NCI-H23 lung): 36 µM
- GI50 (NCI-H460 lung): 10.9 µM
- TGI (NCI-H460 lung): 41.5 µM
- GI50 (NCI-H522 lung): 12.2 µM
- TGI (NCI-H522 lung): 30.1 µM
- GI50 (NCI/ADR-RES ovarian): 15.7 µM
- TGI (NCI/ADR-RES ovarian): 40.9 µM
- GI50 (OVCAR-3 ovarian): 11.3 µM
- TGI (OVCAR-3 ovarian): 24.2 µM
- GI50 (OVCAR-4 ovarian): 9.65 µM
- TGI (OVCAR-4 ovarian): 48.9 µM
- GI50 (OVCAR-5 ovarian): 14.6 µM
- TGI (OVCAR-5 ovarian): 27.9 µM
- GI50 (OVCAR-8 ovarian): 16.2 µM
- TGI (OVCAR-8 ovarian): 60.9 µM
- GI50 (PC-3 prostate): 12.3 µM
- TGI (PC-3 prostate): 51.4 µM
- GI50 (RPMI-8226 leukemia): 12.9 µM
- TGI (RPMI-8226 leukemia): 40.2 µM
- GI50 (RXF 393 renal): 14.2 µM
- TGI (RXF 393 renal): 35.8 µM
- GI50 (SF-268 CNS): 17.4 µM
- TGI (SF-268 CNS): 41.6 µM
- GI50 (SF-295 CNS): 40.1 µM
- TGI (SF-295 CNS): > 100 µM
- GI50 (SF-539 CNS): 14.2 µM
- TGI (SF-539 CNS): 32.6 µM
- GI50 (SK-MEL-2 melanoma): 25.1 µM
- TGI (SK-MEL-2 melanoma): 67.8 µM
- GI50 (SK-MEL-28 melanoma): 18.9 µM
- TGI (SK-MEL-28 melanoma): 69.3 µM
- GI50 (SK-MEL-5 melanoma): 4.34 µM
- TGI (SK-MEL-5 melanoma): 59.8 µM
- GI50 (SK-OV-3 ovarian): 48.4 µM
- TGI (SK-OV-3 ovarian): > 100 µM
- GI50 (SN12C renal): 17.2 µM
- TGI (SN12C renal): 50.4 µM
- GI50 (SNB-19 CNS): 51 µM
- TGI (SNB-19 CNS): > 100 µM
- GI50 (SNB-75 CNS): 16.7 µM
- TGI (SNB-75 CNS): 57.6 µM
- GI50 (SW-620 colon): 13.4 µM
- TGI (SW-620 colon): 26.9 µM
- GI50 (TK-10 renal): 22.9 µM
- TGI (TK-10 renal): 82.2 µM
- GI50 (U251 CNS): 12.2 µM
- TGI (U251 CNS): 45.2 µM
- GI50 (UACC-257 melanoma): 23.6 µM
- TGI (UACC-257 melanoma): 82.9 µM
- GI50 (UACC-62 melanoma): 16 µM
- TGI (UACC-62 melanoma): 49.1 µM
- GI50 (UO-31 renal): 19.2 µM
- TGI (UO-31 renal): > 100 µM
